Data: US20230270711A1, “Improved Anti-Hangover Composition, Its Preparation and Uses” (Zobrius Pharma AS, priority 2019, published 2023)

Assays:
[1] = target: LADH; settings: read-out: Ki, inhibition of LADH; cited from earlier work
[2] = system: alcohol metabolism; experiment: Clinical Study Protocol: alcohol metabolism from BAC (CA 2000 Digital Alcohol Detector), Examples 1 and 2; assay type: in vivo, human; settings: in the 500 ml Composition A (90 g fructose)
Protocol: Clinical Study Protocol—The studies presented in Examples 1 and 2 were carried out with 10 individuals (6 males and 4 females, aged 24-57 years).
In the control study (using water alone as the after-alcohol drink), the test persons were given 8 oz. (ca.2.4 dl) of vodka mixed with 6 dl Sprite® (The Coca Cola Company). The alcohol was consumed within one hour. At a given time, 30-60 minutes after alcohol consumption, each person drank a given volume of water (control composition). The alcohol level was then measured as described below.
One week later, a second study was carried out, wherein the same test persons were given the same amounts of vodka and Sprite®, respectively. At the given time after alcohol consumption, each test person drank the given volume of a test composition. The alcohol level was then measured as described just below.
Blood alcohol concentration (BAC) was measured, using a CA 2000 Digital Alcohol Detector, once every 30 minutes in each experiment. Each value is an average of four parallel measurements. Evaluation of effect against hangover was graded on a scale from 1-10 (where 10 represents the greatest effect).
The study protocol was carried out as described above, wherein the test composition comprised Comparative Composition A (defined below); the given time was 45 minutes; and the given volume was 500 ml. […]

Row | SMILES | Ki [1] [µM] | Contribution of fructose to the acceleration of alcohol degradation [2]
1 | NC(=O)C1=CN([C@@H]2O[C@H](COP(=O)(O)OP(=O)(O)OC[C@H]3O[C@@H](n4cnc5c(N)ncnc54)[C@H](O)[C@@H]3O)[C@@H](O)[C@H]2O)C=CC1 [NADH] | 56 | –
2 | O=C(CO)[C@@H](O)[C@H](O)[C@H](O)CO [fructose] | – | 20-25%
